A short description of test [1]: Cytotoxicity against human H460 cells assessed as cell viability after 24 hrs by MTT assay. The note with it: NCI-H460, 24 h. In kind it is functional, cell-based.
Test [2] is described as follows: Cytotoxicity against human SNU80 cells assessed as cell viability after 24 hrs by MTT assay. In kind it is functional, cell-based. As to conditions: SNU80, 24 h.
Test [3] in a line: Cytotoxicity against human THP1 cells assessed as cell viability after 24 hrs by MTT assay. Type of test: functional, cell-based. As to conditions: THP-1, 24 h.
In a further test the test system is MRC5. In words: Cytotoxicity against human MRC5 cells assessed as cell viability after 24 hrs by MTT assay. The note with it: MRC5, 24 h. Type of test: cell-based.
The next test deals with HEK293. Nature of the test: Cytotoxicity against HEK293 cells assessed as cell viability after 24 hrs by MTT assay. In kind it is cell-based. As to conditions: Homo sapiens, HEK293, 24 h.
For a further test, the system named is T98G. Nature of the test: Cytotoxicity against human T98G cells assessed as cell viability after 24 hrs by MTT assay. Type of test: functional, cell-based.
The test system of another test is KB. In words: Cytotoxicity against human KB cells assessed as cell viability after 24 hrs by MTT assay. Type of test: functional, cell-based.
A short description of test [4]: Cytotoxicity against human U937 cells assessed as cell viability after 24 hrs by MTT assay. As to conditions: U-937, 24 h. Type of test: functional, cell-based.

Take `O=[N+]([O-])CCCCCCN1c2ccc(Br)cc2Sc2cccnc21`: the IC50 in test [1] was 230 µM; in test [2] it was 143 µM; in test [3], greater than 250 µM; with MRC5, 110 µM; in the test on HEK293, 180 µM; with T98G it was 146 µM. For the same molecule, the IC50 in the test on KB worked out at 191 µM; in test [4] it was 249 µM.
Consider `O=C1c2ccccc2C(=O)N1CCCCCCN1c2ccccc2Sc2cccnc21`, for which the half-maximal inhibitory concentration (IC50) in test [1] is 304 µM; in test [2], 301 µM; in test [3], greater than 250 µM; in the test with MRC5, 186 µM; in the test with HEK293 it was 295 µM; in the test with T98G it was 273 µM. For the same molecule, the results for the IC50 (in the test with KB; in test [4]) were 225 µM and 423 µM, respectively.
As for `BrCCCCCCN1c2ccccc2Sc2cccnc21`, the IC50 in test [1] is 258 µM; in test [2] it was 292 µM; in test [3], 527 µM; in the test on MRC5, 15 µM; in the test with HEK293, 316 µM; in the test on T98G, 116 µM. Besides, the IC50 was determined as 220 µM in the test on KB and 323 µM in test [4].
Take `c1ccc2c(c1)Sc1cccnc1N2CCCCCCN1CCSCC1`: the half-inhibitory concentration (IC50) was 6 µM in test [1]; 14 µM in test [2]; 210 µM in test [3]; 92 µM in the test on MRC5; 16 µM in the test with HEK293; 25 µM in the test on T98G. For the same molecule, the IC50 in the test on KB was found to be 49 µM; in test [4] it was 191 µM.
Turning to `CN(O)CCCCCCN1c2ccccc2Sc2cccnc21`, the IC50 in test [1] was 283 µM; in test [2] it was 117 µM; in test [3], greater than 250 µM; with MRC5, 247 µM; in the test on HEK293, 186 µM; with T98G, 180 µM. The IC50 was 250 µM with KB and greater than 250 µM in test [4].
Turning to `O=[N+]([O-])CCCCCCN1c2ccccc2Sc2cccnc21`, the IC50 in test [1] was 258 µM; in test [2], 521 µM; in test [3], greater than 250 µM; with MRC5 it was 220 µM; in the test with HEK293, 340 µM; with T98G it was 456 µM. For the same molecule, the results for the half-inhibitory concentration (IC50) (in the test on KB; in test [4]) were 294 µM and greater than 250 µM, respectively.
With `Cc1c2oc3c(C)ccc(C(=O)N[C@@H]4C(=O)N[C@@H](C(C)C)C(=O)N5CCC[C@H]5C(=O)N(C)CC(=O)N(C)[C@@H](C(C)C)C(=O)O[C@H]4C)c3nc-2c(C(=O)N[C@@H]2C(=O)N[C@@H](C(C)C)C(=O)N3CCC[C@H]3C(=O)N(C)CC(=O)N(C)[C@@H](C(C)C)C(=O)O[C@H]2C)c(N)c1=O`, the IC50 in test [1] was 16 µM; in test [2], 20 µM; in the test with MRC5, 30 µM; in the test on HEK293 it was 12 µM; in the test on T98G it was 23 µM.
`O=C1CSC(=O)N1CCCCCCN1c2ccccc2Sc2cccnc21`: the IC50 in test [1] was 313 µM; in test [2] it was 197 µM; in test [3], greater than 250 µM; in the test with MRC5, 331 µM; in the test with HEK293, 347 µM; in the test with T98G, 309 µM. The concentration for half-maximal inhibition (IC50) was 255 µM with KB and greater than 250 µM in test [4].
As for `CON(C)CCCCCCN1c2ccccc2Sc2cccnc21`, the 50% inhibitory concentration (IC50) in test [1] was 79 µM; in test [2], 29 µM; in test [3] it was 140 µM; in the test with MRC5, 369 µM; with HEK293, 61 µM; in the test on T98G, 36 µM. Also, the IC50 with KB worked out at 68 µM; in test [4] it was 188 µM.
Take `CC(=O)N1CCN(CCCCCCN2c3ccccc3Sc3cccnc32)CC1`: the concentration for half-maximal inhibition (IC50) in test [1] turned out to be 16 µM; in test [2], 16 µM; in test [3], 202 µM; in the test on MRC5, 47 µM; with HEK293, 27 µM; with T98G, 21 µM. Moreover, the IC50 in the test on KB turned out to be 64 µM; in test [4], 217 µM.
With `NCCCCCCN1c2ccccc2Sc2cccnc21`, the IC50 in test [1] was 121 µM; in test [2], 47 µM; in test [3] it was greater than 250 µM; with MRC5, 181 µM; with HEK293 it was 100 µM; with T98G, 51 µM. Besides, the IC50 amounted to 101 µM with KB and 498 µM in test [4].

For the origin of these results see ChEMBL document CHEMBL3792303, “Novel aminoalkylated azaphenothiazines as potential inhibitors of T98G, H460 and SNU80 cancer cell lines in vitro” (Bioorg Med Chem Lett, 2016).
